Results as given in US20220110882A1, “SYNTHETICALLY LETHAL NANOPARTICLES FOR TREATMENT OF CANCERS” (UNIVERSITY OF IOWA RESEARCH FOUNDATION, priority 2017, published 2022).

Columns and labels:
GOF Hec50co cells = assay: BIBFs effect on NPs uptake using flow cytometry; assay type: cell-based, human; settings: 1 μM BIBFs, 6 h, serum containing media
Experimental: (§1) BIBFs effect on NPs uptake using flow cytometry. The effect of BIBFs on the uptake of different RHDp against Hec50co cells and GOF Hec50co cells was tested. Both cell lines were plated at a seeding density of 10^5 cell/well in 12 well plate, and then the experiment was carried out as mentioned in section [00125]) with two exceptions: a) RHDp uptake was evaluated in the presence or absence of 1 μM BIBFs, b) the experiment was carried out in serum containing media to mimic the in vivo conditions.

Hec50co cells [1] = assay: BIBFs effect on NPs uptake using flow cytometry; assay type: cell-based, human; settings: 1 μM BIBFs, 6 h, serum containing media
Experimental: as §1

Hec50co cells [2] = settings: 5 mg/kg each IV on days 18, 25, 32
Experimental: In vivo efficacy studies using mouse xenograft model of LOF p53 USC. Female athymic NCI-nu/nu mice (Charles River, Wilmington, Mass.) at the age of 6-8 weeks were challenged subcutaneously with 2×10^6 Hec50co cells in the right flank after isoflurane anesthesia. […] Mice were 5 per group, except the group that received the combination therapy were 7. Treatments were administered TV through retro-orbital injections in the venous sinus on days 18, 25, and 32. The tumor diameters and height were measured using digital caliper. The tumor volumes were calculated from the following formula:
Where D1 is the first tumor diameter (mm), D2 is the second tumor diameter (mm), and H is the tumor height.
Mice weights were monitored during the experiment and mice were euthanized once the tumor diameter exceeded 2 cm or tumor height exceeded 1 cm. Sample sizes for this experiment were estimated based on preliminary data in order to have 80% power to detect significant differences between groups. All animal experiments were not blinded, and were carried out in accordance with guidelines and regulations approved by the University of Iowa Institutional Animal Care and Use Committee.

SMILES | increase in fluorescence intensity on addition to RHDp (75/T) (GOF Hec50co cells) [fold] | increase in fluorescence intensity on addition to RHDp (75/T) (Hec50co cells [1]) [fold] | median survival (Hec50co cells [2]) [days]
COC(=O)c1ccc2c(c1)NC(=O)/C2=C(\Nc1ccc(N(C)C(=O)CN2CCN(C)CC2)cc1)c1ccccc1 [BIBFs, BIBF-1120] | 1.5 | 1.5 | –
CC(=O)O[C@H]1C(=O)[C@@]2(C)[C@H]([C@H](OC(=O)c3ccccc3)[C@]3(O)C[C@H](OC(=O)[C@H](O)[C@@H](NC(=O)c4ccccc4)c4ccccc4)C(C)=C1C3(C)C)[C@]1(OC(C)=O)CO[C@@H]1C[C@@H]2O [PTXs, paclitaxel] | – | – | 41
